Source: patent US10538498B2, “1,3,4-oxadiazole sulfonamide derivative compounds as histone deacetylase 6 inhibitor, and the pharmaceutical composition comprising the same” (Chong Kun Dang Pharmaceutical Corp., priority 2015, dated 2020)

Target: T1, human recombinant HDAC6 (Homo sapiens, UniProt Q9UBN7)
T1 construct: purchased Calbiochem 382180
T1 sequence (Q9UBN7 1-1215): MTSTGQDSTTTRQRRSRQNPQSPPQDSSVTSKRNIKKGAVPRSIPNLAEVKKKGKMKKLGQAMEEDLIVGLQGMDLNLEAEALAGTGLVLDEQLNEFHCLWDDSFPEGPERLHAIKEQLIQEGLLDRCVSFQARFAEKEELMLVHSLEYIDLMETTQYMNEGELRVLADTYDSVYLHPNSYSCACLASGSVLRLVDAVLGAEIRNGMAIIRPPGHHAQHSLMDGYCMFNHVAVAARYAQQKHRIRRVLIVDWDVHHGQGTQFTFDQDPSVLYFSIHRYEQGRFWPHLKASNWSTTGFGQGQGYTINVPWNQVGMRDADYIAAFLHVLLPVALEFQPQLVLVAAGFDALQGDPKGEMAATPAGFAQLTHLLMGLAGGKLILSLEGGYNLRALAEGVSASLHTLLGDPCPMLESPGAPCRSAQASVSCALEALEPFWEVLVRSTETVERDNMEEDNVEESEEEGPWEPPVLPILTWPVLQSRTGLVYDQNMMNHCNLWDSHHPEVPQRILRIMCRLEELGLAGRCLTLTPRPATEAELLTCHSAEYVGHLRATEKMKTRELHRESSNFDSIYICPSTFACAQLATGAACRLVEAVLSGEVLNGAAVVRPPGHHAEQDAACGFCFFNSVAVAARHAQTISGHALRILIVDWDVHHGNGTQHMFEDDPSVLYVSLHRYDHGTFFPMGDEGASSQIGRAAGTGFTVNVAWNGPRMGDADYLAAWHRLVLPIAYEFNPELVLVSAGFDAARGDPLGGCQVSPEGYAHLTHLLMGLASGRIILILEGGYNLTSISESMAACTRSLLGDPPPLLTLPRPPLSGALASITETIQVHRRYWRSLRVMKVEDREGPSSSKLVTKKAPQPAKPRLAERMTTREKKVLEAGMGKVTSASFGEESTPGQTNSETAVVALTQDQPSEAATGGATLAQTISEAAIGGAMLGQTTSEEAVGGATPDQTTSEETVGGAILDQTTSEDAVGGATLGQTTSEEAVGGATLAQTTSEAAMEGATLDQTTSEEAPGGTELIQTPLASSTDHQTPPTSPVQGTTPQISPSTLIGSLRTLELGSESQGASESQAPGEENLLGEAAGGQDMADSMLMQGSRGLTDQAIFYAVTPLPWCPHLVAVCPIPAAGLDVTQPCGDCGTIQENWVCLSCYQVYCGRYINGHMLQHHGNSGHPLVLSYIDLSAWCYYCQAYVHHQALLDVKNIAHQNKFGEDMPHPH
Assay: HDAC6 enzyme activity inhibition assay (HDAC Fluorimetric Drug Discovery Kit)
Type: biochemical
Conditions: for HDAC6 selectivity (fold): HDAC1 vs HDAC6; for IC50: same protocol as the HDAC1 enzyme activity test
Protocol: In order to examine the HDAC6 selectivity of the compounds of formula I of the present invention by HDAC1 and HDAC6 enzymatic activity inhibition assays, an experiment was performed using a conventional substance as a control.
HDAC enzyme activity was measured using a HDAC Fluorimetric Drug Discovery Kit (BML-AK511, 516, Enzo Life Science). For the HDAC1 enzyme activity test, human recombinant HDAC1 (BML-SE456) was used as an enzyme source, and Fluor de Lys®-“SIRT1 (BNL-KI177) was used as a substrate. A 5-fold dilution of the compound was seeded into a 96-well plate, and then 0.3 μg of the enzyme and 10 μM of the substrate were added to each well of the plate and allowed to react at 30° C. for 60 minutes. Then, Fluor de Lys®-Developer II (BML-KI176) was added thereto and allowed to react for 30 minutes, after which the fluorescence value (Ex 360, Em 460) was measured using a multi-plate reader (Flexstation 3, Molecular Device). The HDAC6 enzyme was tested using human recombinant HDAC6 (382180) (Calbiochem) according to the same protocol as the HDAC1 enzyme activity test method. Based on the resulting values, each IC50 value was calculated using GraphPad Prism4.0 program.

SMILES | HDAC6 selectivity (fold) | IC50
CCCCN(Cc1ccc(-c2nnc(C(F)(F)F)o2)cc1)S(C)(=O)=O [Compound 11222, N-butyl-N-(4-(5-(trifluoromethyl)-1,3,4-oxadiazol-2-yl)benzyl)methanesulfonamide] | 243 fold | 412 nM
O=S(=O)(c1cccnc1)N(Cc1ccc(-c2nnc(C(F)F)o2)cc1F)c1cccc(F)c1 [Compound 11225, N-(4-(5-(difluoromethyl)-1,3,4-oxadiazol-2-yl)-2-fluorobenzyl)-N-(3-fluorophenyl)pyridine-3-sulfonamide] | 4167 fold | 24 nM
CS(=O)(=O)N(Cc1ccc(-c2nnc(C(F)F)o2)cc1F)c1ccc2c(c1)OCO2 [Compound 11227, N-(benzo[d][1,3]dioxol-5-yl)-N-(4-(5-(difluoromethyl)-1,3,4-oxadiazol-2-yl)-2-fluorobenzyl)methanesulfonamide] | 4348 fold | 23 nM
O=S(=O)(C1CCCCC1)N(Cc1ccc(-c2nnc(C(F)F)o2)cc1F)c1ccccc1 [Compound 11229, N-(4-(5-(difluoromethyl)-1,3,4-oxadiazol-2-yl)-2-fluorobenzyl)-N-phenylcyclohexanesulfonamide] | 1176 fold | 85 nM
CCC(C)S(=O)(=O)N(Cc1ccc(-c2nnc(C(F)F)o2)cc1F)c1ccccc1 (stereo not shown) [Compound 11230, N-(4-(5-(difluoromethyl)-1,3,4-oxadiazol-2-yl)-2-fluorobenzyl)-N-phenylbutane-2-sulfonamide] | 3030 fold | 33 nM
COC(=O)CS(=O)(=O)N(Cc1ccc(-c2nnc(C(F)F)o2)cc1F)c1ccccc1 [Compound 11231, methyl 2-(N-(4-(5-(difluoromethyl)-1,3,4-oxadiazol-2-yl)-2-fluorobenzyl)-N-phenylsulfamoyl)acetate] | 4545 fold | 22 nM
O=S(=O)(c1cccnc1)N(Cc1ccc(-c2nnc(C(F)F)o2)cc1F)c1ccccc1 [Compound 11252, N-(4-(5-(difluoromethyl)-1,3,4-oxadiazol-2-yl)-2-fluorobenzyl)-N-phenylpyridine-3-sulfonamide] | 2564 fold | 39 nM
O=S(=O)(c1cccnc1)N(Cc1ccc(-c2nnc(C(F)(F)F)o2)cc1F)c1cccc(C(F)(F)F)n1 [Compound 11253, N-(2-fluoro-4-(5-(trifluoromethyl)-1,3,4-oxadiazol-2-yl)benzyl)-N-(6-(trifluoromethyl)pyridin-2-yl)pyridine-3-sulfonamide] | 150 fold | 666 nM
CC(=O)c1cccc(N(Cc2ccc(-c3nnc(C(F)F)o3)cc2F)S(C)(=O)=O)c1 [Compound 11254, N-(3-acetylphenyl)-N-(4-(5-(difluoromethyl)-1,3,4-oxadiazol-2-yl)-2-fluorobenzyl)methanesulfonamide] | 3448 fold | 29 nM
O=S1(=O)CCC(S(=O)(=O)N(Cc2ccc(-c3nnc(C(F)(F)F)o3)cc2F)c2cccc(F)c2)CC1 [Compound 11255, N-(2-fluoro-4-(5-(trifluoromethyl)-1,3,4-oxadiazol-2-yl)benzyl)-N-(3-fluorophenyl)tetrahydro-2H-thiopyran-4-sulfonamide 1,1-dioxide] | 2128 fold | 47 nM
O=S1(=O)CCC(S(=O)(=O)N(Cc2ccc(-c3nnc(C(F)F)o3)cc2F)c2cccc(F)c2)CC1 [Compound 11256, N-(4-(5-(difluoromethyl)-1,3,4-oxadiazol-2-yl)-2-fluorobenzyl)-N-(3-fluorophenyl)tetrahydro-2H-thiopyran-4-sulfonamide 1,1-dioxide] | 7692 fold | 13 nM
CS(=O)(=O)N(Cc1ccc(-c2nnc(C(F)F)o2)cc1F)c1ccc(F)cc1 [Compound 11276, N-(4-(5-(difluoromethyl)-1,3,4-oxadiazol-2-yl)-2-fluorobenzyl)-N-(4-fluorophenyl)methanesulfonamide] | 4000 fold | 25 nM
CS(=O)(=O)N(Cc1ccc(-c2nnc(C(F)F)o2)cc1F)c1ccc(Br)cc1 [Compound 11278, N-(4-bromophenyl)-N-(4-(5-(difluoromethyl)-1,3,4-oxadiazol-2-yl)-2-fluorobenzyl)methanesulfonamide] | 1923 fold | 52 nM

Second part, the compound after the results:

HDAC6 selectivity (fold) | IC50 | SMILES
893 fold | 112 nM | Cc1ccccc1N(Cc1ccc(-c2nnc(C(F)(F)F)o2)cc1F)S(C)(=O)=O [Compound 11248, N-(2-fluoro-4-(5-(trifluoromethyl)-1,3,4-oxadiazol-2-yl)benzyl)-N-(o-tolyl)methanesulfonamide]
2703 fold | 37 nM | Cc1ccccc1N(Cc1ccc(-c2nnc(C(F)F)o2)cc1F)S(C)(=O)=O [Compound 11249, N-(4-(5-(difluoromethyl)-1,3,4-oxadiazol-2-yl)-2-fluorobenzyl)-N-(o-tolyl)methanesulfonamide]
1000 fold | 100 nM | COc1ccccc1N(Cc1ccc(-c2nnc(C(F)(F)F)o2)cc1F)S(C)(=O)=O [Compound 11250, N-(2-fluoro-4-(5-(trifluoromethyl)-1,3,4-oxadiazol-2-yl)benzyl)-N-(2-methoxyphenyl)methanesulfonamide]
1563 fold | 64 nM | COc1ccccc1N(Cc1ccc(-c2nnc(C(F)F)o2)cc1F)S(C)(=O)=O [Compound 11251, N-(4-(5-(difluoromethyl)-1,3,4-oxadiazol-2-yl)-2-fluorobenzyl)-N-(2-methoxyphenyl)methanesulfonamide]
775 fold | 129 nM | CS(=O)(=O)N(Cc1ccc(-c2nnc(C(F)(F)F)o2)cc1F)c1ccc(Cl)cc1 [Compound 11271, N-(4-chlorophenyl)-N-(2-fluoro-4-(5-(trifluoromethyl)-1,3,4-oxadiazol-2-yl)benzyl)methanesulfonamide]
1961 fold | 51 nM | CS(=O)(=O)N(Cc1ccc(-c2nnc(C(F)(F)F)o2)cc1F)c1cncc(F)c1 [Compound 11272, N-(2-fluoro-4-(5-(trifluoromethyl)-1,3,4-oxadiazol-2-yl)benzyl)-N-(5-fluoropyridin-3-yl)methanesulfonamide]
1266 fold | 79 nM | CS(=O)(=O)N(Cc1ccc(-c2nnc(C(F)(F)F)o2)cc1F)c1ccccc1F [Compound 11273, N-(2-fluoro-4-(5-(trifluoromethyl)-1,3,4-oxadiazol-2-yl)benzyl)-N-(2-fluorophenyl)methanesulfonamide]
2439 fold | 41 nM | CS(=O)(=O)N(Cc1ccc(-c2nnc(C(F)F)o2)cc1F)c1ccccc1F [Compound 11274]
1370 fold | 73 nM | CS(=O)(=O)N(Cc1ccc(-c2nnc(C(F)(F)F)o2)cc1F)c1ccc(F)cc1 [Compound 11275, N-(2-fluoro-4-(5-(trifluoromethyl)-1,3,4-oxadiazol-2-yl)benzyl)-N-(4-fluorophenyl)methanesulfonamide]
535 fold | 187 nM | CS(=O)(=O)N(Cc1ccc(-c2nnc(C(F)(F)F)o2)cc1F)c1ccc(Br)cc1 [Compound 11277, N-(4-bromophenyl)-N-(2-fluoro-4-(5-(trifluoromethyl)-1,3,4-oxadiazol-2-yl)benzyl)methanesulfonamide]
